# Results: patent US20110251238A1, “PPAR AGONIST COMPOSITIONS AND METHODS OF USE” (BIOPHARMED, priority 2008, published 2011)
# Tests used:
# [1] = test system: orthotopic grafts of human glioblastoma cell lines; test: Orthotopic grafts of human glioblastoma cell lines in brains of nude mice, survival; format: in vivo; details: FIG. 1
# Description: Additional in vivo experiments were carried on nude mice. Briefly, orthotopic grafts of human glioblastoma cell lines were implanted into the brains of nude mice according to the general methodology of Branle et al., (2002) Cancer, 95, 641-655) and Lefranc et al., (2004) Clin. Can. Res., 10, 8250-8265. […] Results are shown in FIG. 1, illustrating the comparative activity of the PPAR agonist BPM18,708 and the reference drug Temodar™ (temozolomide) the only FDA approved drug for glioblastoma grade IV.
# [2] = test system: A549 (human lung adenocarcinoma epithelial); test: Growth inhibition, MTT colorimetric assay, A549; format: cell-based; details: Homo sapiens, A549, 72 h; carcinoma; 3 days with drug; means of six values; unit inferred; read-out: IC50 A549
# Summary of the method: (§1)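 Human tumour cell lines were exposed to compounds for 3 days. Proliferation inhibition was read by MTT colorimetric assay and expressed as IC50. Values are means of six determinations.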
# Host = test: Growth inhibition, MTT colorimetric assay, Host; format: cell-based; details: 72 h; 3 days with drug; means of six values; unit inferred; read-out: IC50 Host
# Summary of the method: (§2)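 3-day continuous drug exposure; MTT readout; IC50 = mean of 6 values, SE <5% of mean.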
# [3] = test system: bloodstream forms of T. brucei and T. congolense; test: Trypanocidal activity in vitro, Alamar Blue assay; format: cell-based, Trypanosoma brucei and T. congolense; details: 48 h total incubation
# Summary of the method: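 Bloodstream-form trypanosomes exposed to compounds in H2O for 24 h, then Alamar Blue added for a further 24 h (48 h total). Absorbance read at 550 nm with 630 nm reference; duplicate wells, three repeats. HL-60 cytotoxicity run alongside: 43 h plus 5 h dye.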
# [4] = test system: PC3 (human prostate cancer); test: Growth inhibition, MTT colorimetric assay, PC3; format: cell-based; details: Homo sapiens, 72 h; carcinoma; 3 days with drug; means of six values; unit inferred; read-out: IC50 PC3
# Summary of the method: as §2
# caspases 3/7 = test: Caspases 3/7 activation in HL60 cells (DEVD reagent); format: cell-based, human; details: 48 hours
# Description: (§3) 7223, using standard commercially available diagnostic kits (Calbiochem, USA). Assay reagents used were DEVD for caspases 3/7, […] for caspases 8, and LEHD for caspases 9. Moreover, colchicine was used as reference compound that induces this activity of caspases.
# U138 MG (human glioma) = test: Growth inhibition, MTT colorimetric assay, U138; format: cell-based; details: Homo sapiens, U138-MG, 72 h; glioma; 3 days with drug; means of six values; unit inferred; read-out: IC50 U138
# Summary of the method: (§4)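 Reported IC50 values average six determinations, with standard error under 5% relative to the mean. Inhibition was scored by MTT after a 3-day culture with the drugs.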
# KaKa = test: Growth inhibition, MTT colorimetric assay, KaKa; format: cell-based; details: 72 h; 3 days with drug; means of six values; unit inferred; read-out: IC50 KaKa
# Summary of the method: as §2
# caspases 9 = test: Caspases 9 activation in HL60 cells (LEHD reagent); format: cell-based, human; details: 48 hours, 1 μM, 0.1 μM and 0.01 μM
# Description: as §3
# [5] = test system: U373 (human glioblastoma-astrocytoma); test: Growth inhibition, MTT colorimetric assay, U373; format: cell-based; details: Homo sapiens, U373 MG, 72 h; glioma; 3 days with drug; means of six values; unit inferred; read-out: IC50 U373
# Summary of the method: as §4
# SKMEL28 (human melanoma) = test: Growth inhibition, MTT colorimetric assay, SKMEL-28; format: cell-based; details: Homo sapiens, SK-MEL-28, 72 h; melanoma; 3 days with drug; means of six values; unit inferred; read-out: IC50 SKMEL-28
# Summary of the method: as §2
# T98G (glioblastoma) = test: cells; format: cell-based; details: Homo sapiens, T98G, 72 h; glioma; 3 days with drug; means of six values; unit inferred; read-out: IC50 T98G
# Summary of the method: as §1
# [6] = test system: MCF-7 (epithelial breast cancer); test: Growth inhibition, MTT colorimetric assay, MCF7; format: cell-based; details: Homo sapiens, MCF7, 72 h; carcinoma; 3 days with drug; means of six values; unit inferred; read-out: IC50 MCF7
# Summary of the method: as §1
# [7] = test system: KB3 (epitheloid lung cancer) cell lines; test: Cell growth inhibition (cytotoxicity), MTS assay, KB3 cell line; format: cell-based
# Description: Cell growth inhibition was determined by the MTS assay; the number of viable cells were proportional to the extent of formazan production in the presence or absence of drugs. […]
smiles,measurement,setting,value
"Oc1ccc(CN(Cc2ccc(C(F)(F)F)cc2)Cc2ccc(O)c3ncccc23)c2cccnc12 [BPM18,708, 5,5′-(4-(trifluoromethyl)benzylazanediyl)bis(methylene)diquinolin-8-ol]",in vivo activity (survival) compared with Temodar,[1],at least as active as Temodar™
same,IC50,[2],8 nM
same,IC50,Host,97 nM
same,GI50,"[3]; 50% growth inhibition, read-out: GI50",310 ± 10 nM
same,MIC,"[3]; lowest concentration at which all cells were killed, read-out: MIC",1 µM
same,IC50,[4],66 nM
same,activation of caspases 3/7,caspases 3/7; 0.01 μM,"neither BPM18,708 nor BPM19,107 has an effect"
same,activation of caspases 3/7,caspases 3/7; 0.1 μM,strong effect
same,activation of caspases 3/7,caspases 3/7; 1 μM,strong effect
same,IC50,U138 MG (human glioma),49 nM
same,IC50,KaKa,1580 nM
same,activation of caspases 9,caspases 9,no effect
same,IC50,[5],44 nM
same,IC50,SKMEL28 (human melanoma),> 10000 nM
same,IC50,T98G (glioblastoma),99 nM
same,IC50,[6],34 nM
same,IC50,"[7]; KB3, Table 3A, MTS assay, triplicate, read-out: KB3 IC50",1 nM
same,cytotoxic activity in words,"[7]; KB3 cell line, structure-cytotoxicity discussion",most active analogue
